Results as given in PubChem BioAssay (NCI).
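Here, GI50 denotes the concentration required for 50% inhibition of growth. TGI: concentration producing complete growth inhibition.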

Legend:
Test in all cases: inhibition of tumour cell growth, NCI panel, 384-well format
[1] = tested on: MCF7 breast
[2] = tested on: DU-145 prostate
[3] = tested on: NCI-H23 lung
[4] = tested on: HT29 colon
[5] = tested on: UACC-62 melanoma
[6] = tested on: NCI-H322M lung
[7] = tested on: SR leukemia
[8] = tested on: TK-10 renal
[9] = tested on: T-47D breast
[10] = tested on: UACC-257 melanoma
[11] = tested on: SK-MEL-5 melanoma
[12] = tested on: MOLT-4 leukemia
[13] = tested on: OVCAR-3 ovarian

## O=S(=O)(c1ccc2c(c1)C(=NO)c1cc(S(=O)(=O)N3CCCCC3)ccc1-2)N1CCCCC1
[1]
  GI50: 187 nM
  TGI: 334 nM
[2]
  GI50: 177 nM
  TGI: 318 nM
[3]
  GI50: 92.7 nM
  TGI: 228 nM
[4]
  GI50: 184 nM
  TGI: 326 nM
[5]
  GI50: 182 nM
  TGI: 323 nM
[6]
  GI50: 178 nM
  TGI: 320 nM
[7]
  GI50: 158 nM
  TGI: 294 nM
[8]
  GI50: 187 nM
  TGI: 336 nM
[9]
  GI50: 155 nM
  TGI: 290 nM
[10]
  GI50: 180 nM
  TGI: 320 nM
[11]
  GI50: 184 nM
  TGI: 359 nM
[12]
  GI50: 168 nM
  TGI: 306 nM
[13]
  GI50: 146 nM
  TGI: 281 nM
